Data as given in US20080009545A1, “Anticancer agents” (The Ohio State University Research Foundation, priority 2006, published 2008).

What was measured:
[1] = target: T1, Bcl-xL/Bak interactions (Homo sapiens, UniProt Q07817); assay: Co-immunoprecipitation of Bcl-xL/Bak in PC-3 cells; format: cell-based
T1 construct: the endogenous counterpart in PC-3 cells; endogenous in cells; host or cells: PC-3 cells
Protocol: Immunoblotting—Cells were seeded in 10% FBS-containing RPMI-1640 medium for 24 h and treated with various agents as aforementioned. After individual treatments for 24 h, the adherent cells in T-25 or T-75 flasks were scraped, combined with the medium, and centrifuged at 2200 rpm for 10 min. The […] were recovered, placed on ice, and triturated with 20 to 50 μL of a chilled lysis buffer (M-PER Mammalian Protein Extraction Reagent; Pierce, Rockford, Ill.), to which was added 1% protease inhibitor cocktail (set III; EMD Biosciences, Inc., San Diego, Calif.). After a 30-min incubation on ice, the mixture was centrifuged at 16,100×g for 3 min. […]
Co-immunoprecipitation—PC3 cells treated with 40 μM α-tocopheryl succinate or 10 μM TS-1 for 24 h were scraped off the flask, transferred into centrifuge tubes, and centrifuged at 2200 rpm for 10 min to pellet the cells. […] Equal amounts of proteins from these lysates, as determined by the Bradford assay, were mixed with anti-Bcl-2 or anti Bcl-XL antibodies in an orbital shaker at 23° C. for 2 h, followed by 100 μL of protein A-agarose bead slurry at 4° C. for 12 h. […]

[2] = system: PrEC cells; assay: MTT cell viability, normal prostate epithelial cells (PrECs); format: cell-based, human; conditions: 24 h, Prostate Epithelial Cell Basal Medium with growth supplements
Protocol: (§1) Cell culture—LNCaP androgen-dependent (p53+/+) and PC-3 androgen-nonresponsive (P53−/−) prostate cancer cells were obtained from the American Type Culture Collection (Manassas, Va.). The preparation of the stable Bcl-xL-overexpressing LNCaP clone B3 (LNCaP/B3) was previously described (18). PC-3, LNCaP, and LNCaP/B3 cells were maintained in RPMI 1640 supplemented with 10% fetal bovine serum (FBS) at 37° C. in a humidified incubator containing 5% carbon dioxide. Normal human prostate epithelial (PrEC) cells were purchased from Cambrex Bio Science Walkersville, Inc. (East Tutherford, N.J.). Cells were maintained in Prostate Epithelial Cell Medium with growth supplements at 37° C. in a humidified incubator containing 5% carbon dioxide. The recommended seeding density for subculture is 2,500 cells/cm^2. It takes 6-9 days from subculture to attain confluency.
Cell viability analysis—The effect of individual test agents on cell viability was assessed by using the MTT assay in 6 to 12 replicates. PC3, LNCaP, and B3-LNCaP cells were seeded and incubated in poly-p-lysine-coated, 96-well, flat-bottomed plates in RPMI 1640 medium supplemented with 10% FBS medium for 24 hours. PrEC cells were seeded at the recommend density in 96-well, flat-bottomed plates in Prostate Epithelial Cell Medium with growth supplements for 3 days. All cells were exposed to various concentrations of test agents dissolved in ethanol (for α-tocopherol, α-tocopheryl succinate, and TS-3) or DMSO (all other test agents used) with a final concentration of 0.1% in serum-free RPMI 1640 medium for PC3, LNCaP, and LNCaP/B3 cells or in Prostate Epithelial Cell Basal Medium with growth supplements for PrEC cells. Controls received DMSO or ethanol vehicle at a concentration equal to that in drug-treated cells. The medium was removed, replaced by 200 μL of 0.5 mM MTT in 10% FBS-containing RPMI 1640 medium, and cells were incubated in the CO2 incubator at 37° C. for 2 h. […] Absorbance at 570 nm was determined on a plate reader.

[3] = system: PC-3 cells; assay: MTT cell viability, PC-3 cells; format: cell-based, human; conditions: 24-h exposure, serum-free RPMI 1640, MTT, read-out: IC50, proliferation inhibition
Protocol: as §1
(§2) Cell viability analysis—The effect of individual test agents on cell viability was assessed by using the MTT assay in 6 to 12 replicates. PC3, LNCaP, and B3-LNCaP cells were seeded and incubated in poly-p-lysine-coated, 96-well, flat-bottomed plates in RPMI 1640 medium supplemented with 10% FBS medium for 24 hours. PrEC cells were seeded at the recommend density in 96-well, flat-bottomed plates in Prostate Epithelial Cell Medium with growth supplements for 3 days. […] Absorbance at 570 nm was determined on a plate reader.
(§3) Determination of IC50 values—Data from cell viability and fluorescence polarization assays were analyzed by using the CalcuSyn software (Biosoft, Ferguson, Mo.) to determine IC50 values, in which the calculation was based on the medium-effect equation [i.e., log(fa/fu)=m log(D)−m log(Dm), where fa and fu denote fraction affected and unaffected, respectively; m represents the Hill-type coefficient signifying the sigmoidicity of the dose-effect curve; and D and Dm are the dose used and IC50, respectively.

[4] = target: Bcl-2 (Homo sapiens, UniProt P10415); assay: Competitive fluorescence polarization assay, Bak BH3 peptide binding to Bcl-2; conditions: Flu-BakBH3, read-out: IC50, disruption of BH3 domain-mediated interactions (Bak BH3 peptide) with Bcl-2
Sequence of Bcl-2 (P10415 whole entry, species assumed, the tested form may be a part): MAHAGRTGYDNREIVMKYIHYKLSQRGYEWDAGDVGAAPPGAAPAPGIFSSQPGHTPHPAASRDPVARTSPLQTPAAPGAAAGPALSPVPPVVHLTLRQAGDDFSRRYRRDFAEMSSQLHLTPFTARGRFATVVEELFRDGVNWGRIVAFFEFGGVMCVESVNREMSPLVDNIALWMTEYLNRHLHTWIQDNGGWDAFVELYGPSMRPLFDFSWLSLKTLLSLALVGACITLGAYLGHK
Protocol: Competitive fluorescence polarization assay—The binding affinity of the test agent to Bcl-XL was analyzed by a competitive fluorescence polarization assay in which the ability of the agent to displace the binding of a Bak BH3-domain peptide to either Bcl-2 or Bcl-XL was determined. Flu-BakBH3, a Bak-BH3 peptide labeled at the NH2 terminus with fluorescein, was purchased from Genemed Synthesis (San Francisco, Calif.). COOH-terminal-truncated, His-tagged Bcl-XL was purchased from EMD Biosciences (San Diego, Calif.) and soluble glutathione S-transferase-fused Bcl-2 was obtained from Santa Cruz Biotechnology. […] Determination of IC50 values—Data from cell viability and fluorescence polarization assays were analyzed by using the CalcuSyn software (Biosoft, Ferguson, Mo.) to determine IC50 values, in which the calculation was based on the medium-effect equation [i.e., log(fa/fu)=m log(D)−m log(Dm), where fa and fu denote fraction affected and unaffected, respectively; m represents the Hill-type coefficient signifying the sigmoidicity of the dose-effect curve; and D and Dm are the dose used and IC50, respectively.

[5] = system: caspase-9; assay: Caspase-9 activation in PC-3 cells (Western blot); format: cell-based, human; conditions: 24 h
Protocol: (§4) Immunoblotting—Cells were seeded in 10% FBS-containing RPMI-1640 medium for 24 h and treated with various agents as aforementioned. After individual treatments for 24 h, the adherent cells in T-25 or T-75 flasks were scraped, combined with the medium, and centrifuged at 2200 rpm for 10 min. The […] were recovered, placed on ice, and triturated with 20 to 50 μL of a chilled lysis buffer (M-PER Mammalian Protein Extraction Reagent; Pierce, Rockford, Ill.), to which was added 1% protease inhibitor cocktail (set III; EMD Biosciences, Inc., San Diego, Calif.). After a 30-min incubation on ice, the mixture was centrifuged at 16,100×g for 3 min. Two μL of the suspension was taken for protein analysis using the Bradford assay kit (Bio-Rad, Hercules, Calif.); to the remaining solution was added the same volume of 2× SDS-polyacryl-amide gel electrophoresis sample loading buffer (100 mM Tris-HCl, pH 6.8, 4% SDS, 5% β-mercaptoethanol, 20% glycerol, and 0.1% bromphenol blue). The mixture was boiled for 10 min. Equal amounts of proteins were loaded onto 8-12% SDS-polyacrylamide gels. After electrophoresis, protein bands were transferred to nitrocellulose membranes in a semidry transfer cell. […]

[6] = system: Bcl-xL, Bcl-2, Bax, Bak, Bad, and Bid; assay: Expression of Bcl-2 family members in PC-3 cells (Western blot); format: cell-based, human; conditions: 24 h, serum-free RPMI 1640
Protocol: as §4

[7] = system: LNCaP cells; assay: MTT cell viability, LNCaP cells; format: cell-based, human; conditions: 24-h exposure, serum-free RPMI 1640, MTT, read-out: IC50, proliferation inhibition
Protocol: as §1, §2, §3

[8] = system: LNCaP/B3 cells; assay: MTT cell viability, Bcl-xL-overexpressing LNCaP (LNCaP/B3) cells; format: cell-based, human; conditions: LNCaP/B3 vs LNCaP cells, 24-h exposure; to a degree greater than that of PC-3 cells
Protocol: as §1, §2

T1 sequence (Q07817 whole entry): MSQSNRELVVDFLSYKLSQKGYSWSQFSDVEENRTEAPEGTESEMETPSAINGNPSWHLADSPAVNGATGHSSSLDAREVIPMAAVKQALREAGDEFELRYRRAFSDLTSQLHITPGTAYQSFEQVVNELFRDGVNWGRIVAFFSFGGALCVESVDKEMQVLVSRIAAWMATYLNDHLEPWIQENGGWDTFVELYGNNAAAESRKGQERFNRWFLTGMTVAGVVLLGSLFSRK

SMILES | intracellular binding of Bak to Bcl-xL ([1]; 10 μM) | antiproliferative effect on normal prostate epithelial cells [2] | level of Bak associated with Bcl-xL ([1]; 40 μM, 12 h, vs DMSO control) | IC50 [3] | IC50 [4] | caspase-9 activation [5] | Bad expression [6] | expression level of Bcl-2 members other than Bad (Bcl-xL, Bcl-2, Bax, Bak, Bid) [6] | IC50 [7] | resistance to induced cell death by ectopic Bcl-xL expression [8]
Cc1c(C)c2c(c(C)c1OC(=O)CCC(=O)O)CCC(C)(CCCC(C)CCCC(C)C)O2 (centres unmarked) [TS-1, succinic acid mono-[2-(4,8-dimethyl-nonyl)-2,5,7,8-tetramethyl-chroman-6-yl]ester] | abolished | resistant |  |  |  |  |  |  |  | 
Cc1c(C)c2c(c(C)c1OC(=O)CCC(=O)O)CC[C@@](C)(CCC[C@H](C)CCC[C@H](C)CCCC(C)C)O2 [α-tocopheryl succinate, reference compound] |  | resistant | significantly reduced | 40 µM | 26 ± 2 µM | in a dose-dependent manner | decrease | did not cause appreciable changes | 15 µM | substantially increased the resistance
